Experimental data as given in paper PMC8618917 (Pharmaceutics, 2021).
Where two headings read alike, the source gives them in different places.

Key:
MERS-CoV [1] = experiment: microbe, parasite or virus in culture; assay type: cell-based; conditions: for IC50: read-out: IC50, inhibition of MERS-CoV infection
MERS-CoV [2] = experiment: microbe, parasite or virus in culture; assay type: cell-based; conditions: for IC50: read-out: IC50, MERS-CoV virus-induced cytopathic effect
SARS-CoV = experiment: microbe, parasite or virus in culture; assay type: cell-based; conditions: read-out: IC50, inhibition of SARS-CoV infection
SARS-CoV-2 = experiment: microbe, parasite or virus in culture; assay type: cell-based; conditions: read-out: IC50, inhibition of SARS-CoV-2 infection
[3] = test system: MERS-CoV, SARS-CoV, and SARS-CoV-2; experiment: organism not typed; assay type: cell-based
in vitro = conditions: human
[4] = Rat pharmacokinetic study
[5] = Five-day repeated dose toxicity study; conditions: mice; for Death / Time of 100% death after administration: intraperitoneal 10 mg/kg/day
[6] = Liver microsomal metabolic stability, rat; conditions: 1 μM compound, liver microsomes, 30 min
[7] = Liver microsomal metabolic stability, mice; conditions: 1 μM compound, liver microsomes, 30 min
[8] = Liver microsomal metabolic stability, human; conditions: 1 μM compound, liver microsomes, 30 min
CYP450 isozymes = experiment: CYP450 inhibition, text summary over isozymes
[9] = Plasma protein binding, text summary over mouse and rat; conditions: in mouse and rat
[10] = Plasma protein binding, rat (rapid equilibrium dialysis)
[11] = Plasma protein binding, mice (rapid equilibrium dialysis); conditions: mouse
[12] = Liver microsomal stability, text summary over mouse, rat and human; conditions: rat, human, liver microsomes
[13] = Middle East respiratory syndrome-related coronavirus, Vero, 24 h
[14] = Middle East respiratory syndrome-related coronavirus, Calu-3, 72 h
[15] = Severe acute respiratory syndrome coronavirus, Vero
[16] = Severe acute respiratory syndrome coronavirus 2, Vero
[17] = read-out: IC50, anti-coronavirus activity (range over both compounds and the viruses)
[18] = intraperitoneal 2 mg/kg/day, data not shown
[19] = male, Sprague-Dawley, plasma, iv, 1 mg/kg
[20] = male, Sprague-Dawley, plasma, po, 2 mg/kg
[21] = intraperitoneal 10 mg/kg/day for 5 days

C[C@]12CC[C@H](O)C[C@H]1CC[C@@H]1[C@@H]2CC[C@]2(C)[C@@H](c3ccc(=O)oc3)C[C@H]3O[C@]132 [resibufogenin]
IC50 (MERS-CoV [1]; [13]): 1610 nM | Selectivity index (SI) (MERS-CoV [2]): > 3.1 | IC50 (MERS-CoV [2]; [14]): 16000 nM | IC50 (SARS-CoV; [15]): 1360 ± 59 nM | IC50 (SARS-CoV-2; [16]): 1610 ± 63 nM | IC50 [3, 17]: 231 to 1610 nM | CC50 (in vitro): > 50000 nM

CC(=O)O[C@H]1[C@H]2O[C@]23[C@@H]2CC[C@@H]4C[C@@H](O)CC[C@]4(C)[C@H]2CC[C@]3(C)[C@H]1c1ccc(=O)oc1 [cinobufagin]
IC50 (MERS-CoV [1]; [13]): 17 nM | IC50 (MERS-CoV [2]; [14]): 616 nM | IC50 (MERS-CoV [2]): 616 nM | IC50 (SARS-CoV; [15]): 60.9 nM | IC50 (SARS-CoV): 60 ± 2 nM | IC50 (SARS-CoV-2; [16]): 72.2 nM | IC50 (SARS-CoV-2): 72 ± 1 nM | CC50 (in vitro): > 50000 nM | Time within which all rats (n = 3) died ([4]; 1 mg/kg IV injection, data not shown): ≤ 10 min | Detection in plasma after PO injection ([4]; 30 min after PO injection, 2 mg/kg, data not shown): not detected | Survival [5, 18]: 100% | Death [5]: 100% | Time of 100% death after administration [5]: 2 days | MS (% of Remaining), Rat [6]: 4.40% | MS (% of Remaining), Mice [7]: 0.18% | MS (% of Remaining), Human [8]: 2.99% | inhibition at 10 µM (CYP450 isozymes): 4 to 46% | fraction unbound at 4 h, 5 μM ([9]; mouse, rat, plasma, PPB rate): 0.1 to 0.22 | fraction unbound at 4 h, 5 μM [10]: 0.218 | fraction unbound at 4 h, 5 μM [11]: 0.092 | remaining at 0.5 h, 1 μM [12]: < 5%

C[C@H]1O[C@@H](O[C@H]2[C@@H](O)C[C@H](O[C@H]3[C@@H](O)C[C@H](O[C@H]4CC[C@@]5(C)[C@H](CC[C@@H]6[C@@H]5CC[C@]5(C)[C@@H](C7=CC(=O)OC7)CC[C@]65O)C4)O[C@@H]3C)O[C@@H]2C)C[C@H](O)[C@@H]1O [digitoxin, Digitoxin]
Selectivity index (SI, CC50/IC50) (MERS-CoV [1]): > 147.9 | IC50 (MERS-CoV [1]; [13]): 67 nM | Selectivity index (SI) (MERS-CoV [2]): > 33.4 | IC50 (MERS-CoV [2]; [14]): 1500 nM | IC50 (SARS-CoV; [15]): 62.1 nM | IC50 (SARS-CoV): 62 ± 1 nM | IC50 (SARS-CoV-2; [16]): 59.9 nM | IC50 (SARS-CoV-2): 59 ± 1 nM | CC50 (in vitro): > 50000 nM | Survival [5, 18]: 100% | Death [5]: 100% | Time of 100% death after administration [5]: 4 days

C[C@]12CC[C@H](O)C[C@H]1CC[C@@H]1[C@@H]2CC[C@]2(C)[C@@H](c3ccc(=O)oc3)CC[C@]12O [bufalin]
IC50 (MERS-CoV [1]; [13]): 18 nM | Selectivity index (SI) (MERS-CoV [2]): > 91.9 | IC50 (MERS-CoV [2]; [14]): 544 nM | IC50 (MERS-CoV [2]): 544 nM | IC50 (SARS-CoV; [15]): 16 nM | IC50 (SARS-CoV-2; [16]): 19 nM | IC50 ([3]; read-out: IC50, anti-SARS-CoV and SARS-CoV-2 activity (range over both viruses)): 16 to 19 nM | CC50 (in vitro): > 50000 nM | Survival [5, 18]: 100% | Death [5]: 100% | Time of 100% death after administration [5]: 1 days

C[C@]12CC[C@H](O)C[C@@]1(O)CC[C@@H]1[C@@H]2CC[C@]2(C)[C@@H](c3ccc(=O)oc3)CC[C@]12O [telocinobufagin]
IC50 (MERS-CoV [1]; [13]): 27 nM | IC50 (MERS-CoV [2]; [14]): 464 nM | IC50 (MERS-CoV [2]): 465 nM | IC50 (SARS-CoV; [15]): 71.2 nM | IC50 (SARS-CoV): 71 ± 2 nM | IC50 (SARS-CoV-2; [16]): 142 nM | IC50 (SARS-CoV-2): 142 ± 2 nM | CC50 (in vitro): > 50000 nM | Ft (oral bioavailability) ([4]; P.O., 2 mg/kg): 33.2% | AUC [4, 19]: 604 ± 159 ng·h/mL | Vd [4, 19]: 0.275 ± 0.169 L/kg | clearance [4, 19]: 28.8 mL/min/kg | half-life [4, 19]: 13.5 ± 1.2 min | AUC [4, 20]: 488 ± 204 ng·h/mL | Cmax [4, 20]: 537 ± 227 ng/mL | Tmax [4, 20]: 20 ± 8.64 min | half-life [4, 20]: 30.6 ± 24.4 min | bioavailability ([4]; male, Sprague-Dawley, plasma, po, 2 mg/kg, Ft (oral bioavailability), P.O.): 33% | Survival [5, 21]: 100% | MS (% of Remaining), Rat [6]: 31.9% | MS (% of Remaining), Mice [7]: 21.7% | MS (% of Remaining), Human [8]: 15.1% | inhibition at 10 µM (CYP450 isozymes): 1.4 to 21% | PPB rate [9]: 96–97% | fraction unbound at 4 h, 5 μM [10]: 0.032 | fraction unbound at 4 h, 5 μM [11]: 0.022 | remaining at 0.5 h, 1 μM [12]: 15 to 30%

CC(=O)O[C@H]1[C@H]2O[C@]23[C@@H]2CC[C@]4(O)C[C@@H](O)CC[C@]4(C)[C@H]2CC[C@]3(C)[C@H]1c1ccc(=O)oc1 [cinobufotalin]
IC50 (MERS-CoV [1]; [13]): 230 nM | IC50 (MERS-CoV [1]): 231 ± 14 nM | Selectivity index (SI) (MERS-CoV [2]): > 12.6 | IC50 (MERS-CoV [2]; [14]): 3960 nM | IC50 (SARS-CoV; [15]): 429 nM | IC50 (SARS-CoV): 429 ± 17 nM | IC50 (SARS-CoV-2; [16]): 399 nM | IC50 (SARS-CoV-2): 399 ± 8 nM | IC50 [3, 17]: 231 to 1610 nM | CC50 (in vitro): > 50000 nM | Survival [5, 21]: 100%

CC(=O)O[C@H]1C[C@]2(O)[C@@H]3CC[C@@H]4C[C@@H](O)CC[C@]4(C)[C@H]3CC[C@]2(C)[C@H]1c1ccc(=O)oc1 [bufotalin]
IC50 (MERS-CoV [1]; [13]): 63 nM | Selectivity index (SI) (MERS-CoV [2]): > 30.7 | IC50 (MERS-CoV [2]; [14]): 1630 nM | IC50 (SARS-CoV; [15]): 27 nM | IC50 (SARS-CoV-2; [16]): 72.9 nM | IC50 (SARS-CoV-2): 72 ± 1 nM | CC50 (in vitro): > 50000 nM | Survival [5, 21]: 100%
